Data: patent US20220226313A1, “COMBINATION THERAPIES THAT INCLUDE AN AGENT THAT PROMOTES GLUCOSE OXIDATION AND AN INHIBITOR OF PYRUVATE DEHYDROGENASE KINASE” (IMBRIA PHARMACEUTICALS, INC., priority 2019, published 2022)
“And” between values parts separate entries of the source, which are not always exact repeats. Equal entries are not always repeated. Values belong to the compound of their own block, whether it stands above or below them.

Assays:
[1] = stability of CV-8972 in aqueous solution at different concentrations and pH; assay type: physicochemical
Experimental: The stability of CV-8972 was analyzed. Aqueous samples containing CV-8972 at different concentrations and pH were incubated for various periods and analyzed.
Form A of CV-8972 was analyzed for stability in aqueous solution. Aqueous samples containing CV-8972 at different concentrations and pH were incubated for various periods and analyzed.

[2] = recrystallization to monohydrate of CV-8972, water content by KF; assay type: physicochemical; settings: recrystallized monohydrate of CV-8972, MeOH:MEK with water; theoretical 3.32%
Source text: The product was converted to the desired polymorph by recrystallization. The percentage of water and the ratio of methanol:methyl ethyl ketone (MEK) were varied in different batches using 2.5 g of product.
In batch MBA 25, 5% water w/r/t total volume of solvent (23 volumes) containing 30% methano1:70% MEK was used for precipitation. The yield was 67% of monohydrate of CV-8972.
In batch MBA 26, 1.33% water w/r/t total volume of solvent (30 volumes) containing 20% methano1:80% MEK was used for precipitation. […] Water content was determined by KF to be 4.0%.
In batch MBA 27, 3% water w/r/t total volume of solvent (32 volumes) containing 22% methano1:78% MEK was used for precipitation. The yield was 87.22% of monohydrate of CV-8972.
In other batches, the ratio and total volume of solvent were held constant at 20% methano1:80% MEK and 30 volumes in batches using 2.5 g of product, and only the percentage of water was varied.
In batch MBA 29, 1.0 equivalent of water was added. Material was isolated and dried under vacuum at 40° C. for 24 hours. Water content was determined by KF to be 0.89%, showing that the monohydrate form was not forming stoichiometrically.
In batch MBA 30, 3% water was added. Material was isolated and dried under vacuum at 40° C. for 24 hours.
In batch MBA 31, 5% water was added. Material was isolated and dried under vacuum at 40° C. for 24 hours. Water content was determined by KF to be 3.30%, showing that monohydrate is forming with addition of excess water.

[3] = tested on: isolated hearts after ischemia-reperfusion; assay: ischemia-reperfusion (IR), coronary flow; assay type: in vivo, mice; settings: ratio of flow at 170 minutes to flow at 20 minutes
Experimental: FIG. 38 is a schematic of the ischemia-reperfusion (IR) method used to analyze the effects of selected compositions on coronary flow, cardiac function, and infarct size. […] At 20 minutes, ischemia was induced, and coronary flow was analyzed. At 50 minutes, reperfusion was initiated to restore blood flow. At 170 minutes, coronary flow and cardiac function was analyzed, and then the hearts were preserved, sectioned, and infarct size was measured by triphenyltetrazolium chloride (TTC) staining. FIG. 39 is a graph of coronary flow of after IR.

[4] = tested on: isolated hearts after ischemia-reperfusion; assay: ischemia-reperfusion (IR), cardiac function (LVDP); assay type: in vivo, mice; settings: group mean
[5] = tested on: isolated hearts after ischemia-reperfusion; assay: ischemia-reperfusion (IR), infarct size by TTC staining; assay type: in vivo, mice; settings: composite image data, mean of the group's hearts
Experimental: FIG. 38 is a schematic of the ischemia-reperfusion (IR) method used to analyze the effects of selected compositions on coronary flow, cardiac function, and infarct size. […] At 20 minutes, ischemia was induced, and coronary flow was analyzed. At 50 minutes, reperfusion was initiated to restore blood flow. At 170 minutes, coronary flow and cardiac function was analyzed, and then the hearts were preserved, sectioned, and infarct size was measured by triphenyltetrazolium chloride (TTC) staining. […] FIG. 42 is graph of infarct size after IR.

Retention Time 5.6 (purity of CV-8972) ([1]; 2 mg/mL pH 6, 0 hrs): 98.01
Retention Time 5.6 (purity of CV-8972) ([1]; 2 mg/mL pH 7, 0 hrs): 97.53
Retention Time 5.6 (purity of CV-8972) ([1]; 10 mg/mL pH 6, 0 hrs): 95.24
Retention Time 5.6 (purity of CV-8972) ([1]; 10 mg/mL pH 7, 0 hrs): 92.85
Structure (SMILES): COc1ccc(CN2CCN(CCOC(=O)c3cccnc3)CC2)c(OC)c1OC.Cl.Cl.Cl.O [Sample 276-MBA-172]

KF result (% of water) [2]: 3.46%
Structure (SMILES): COc1ccc(CN2CCN(CCOC(=O)c3cccnc3)CC2)c(OC)c1OC.Cl.Cl.Cl.O [Sample 289-MBA-25]

KF result (% of water) [2]: 4.00%
KF result (Sample after drying at 40° C. for 24 hours) [2]: 3.75%
Structure (SMILES): COc1ccc(CN2CCN(CCOC(=O)c3cccnc3)CC2)c(OC)c1OC.Cl.Cl.Cl.O [Sample 289-MBA-26]

KF result (% of water) [2]: 3.93%
KF result (Sample after drying at 40° C. for 24 hours) [2]: 3.54%
Structure (SMILES): COc1ccc(CN2CCN(CCOC(=O)c3cccnc3)CC2)c(OC)c1OC.Cl.Cl.Cl.O [Sample 289-MBA-27]

KF result (Sample after drying at 40° C. for 24 hours) [2]: 0.89%
Structure (SMILES): COc1ccc(CN2CCN(CCOC(=O)c3cccnc3)CC2)c(OC)c1OC.Cl.Cl.Cl.O [Sample 289-MBA-29]

KF result (Sample after drying at 40° C. for 24 hours) [2]: 3.51%
Structure (SMILES): COc1ccc(CN2CCN(CCOC(=O)c3cccnc3)CC2)c(OC)c1OC.Cl.Cl.Cl.O [Sample 289-MBA-30]

KF result (Sample after drying at 40° C. for 24 hours) [2]: 3.30%
Structure (SMILES): COc1ccc(CN2CCN(CCOC(=O)c3cccnc3)CC2)c(OC)c1OC.Cl.Cl.Cl.O [Sample 289-MBA-31]

Structure (SMILES): COc1ccc(CN2CCNCC2)c(OC)c1OC [TMZ, trimetazidine]
CF170/CF20 ([3]; group MEAN): 4.02E+01 ul/ml
CF170/CF20 ([3]; individual heart): 2.42E+01 ul/ml and 5.87E+01 ul/ml and 3.57E+01 ul/ml and 3.37E+01 ul/ml and 5.21E+01 ul/ml and 2.73E+01 ul/ml and 2.60E+01 ul/ml and 6.39E+01 ul/ml
left ventricular developed pressure (LVDP), T20 Mean ([4]; Table 6, at 20 minutes): 55.86
left ventricular developed pressure (LVDP), T170 Mean ([4]; Table 6, at 170 minutes): 48.91
IS/LV, Mean [5]: 56%
